Data reported in paper PMC9564337, “Development of a Neurotensin-Derived ^68Ga-Labeled PET Ligand with High In Vivo Stability for Imaging of NTS1 Receptor-Expressing Tumors” (Cancers, 2022).
Like-named read-outs stand apart in the source and are kept apart here.

Legend:
[1] = in vitro; format: in vitro ADME; settings: human; for remaining at 1 h, 100 µM: pH 7.4, % Intact Peptide in Plasma after 1 h; for remaining at 6 h, 100 µM: pH 7.4, % Intact Peptide in Plasma after 6 h; for remaining at 24 h, 100 µM: pH 7.4, % Intact Peptide in Plasma after 24 h; for remaining at 48 h, 100 µM: pH 7.4, % Intact Peptide in Plasma after 48 h; for % Intact Peptide in Plasma after 1 h / % Intact Peptide in Plasma after 6 h / % Intact Peptide in Plasma after 24 h / % Intact Peptide in Plasma after 48 h: 100 µM, pH 7.4
Protocol: The concentration of the peptides in plasma/PBS (1:2 v/v) was 80 and 4 μM (recovery determination) or 100 μM (stability tests). Data analysis was based on UV detection at 220 nm (8, 9, 11, 12, 14-18, 21-23, 38-49, and 54-57) or fluorescence detection at 275/305 nm (19 and 20). Reference samples, representing 100% recovery, were prepared in duplicate (8, 9, 11, 14-16, and 19-21) or quadruplicate (12, 17, 18, 22, 23, 38-49, and 54-57). Recovery ratios were obtained by dividing the recovery of the peptide by the recovery of IS for each individual sample (n = 3-5). The obtained recoveries and the recovery ratios are summarized in Table S2, Supplementary Materials. […] Instead, the recovery ratios determined for the previously reported, structurally closely related peptide […] [40] were used for calculating the amount of remaining intact peptide in plasma.

[2] = biological target: T1, hNTS1R (Homo sapiens, UniProt P30989); assay: radioligand competition binding with [3H]UR-MK300 at intact HT-29 cells
T1 construct: intact HT-29 colon carcinoma cells expressing the hNTS1R; host or cells: HT-29 human colon carcinoma cells
T1 sequence (P30989 whole entry): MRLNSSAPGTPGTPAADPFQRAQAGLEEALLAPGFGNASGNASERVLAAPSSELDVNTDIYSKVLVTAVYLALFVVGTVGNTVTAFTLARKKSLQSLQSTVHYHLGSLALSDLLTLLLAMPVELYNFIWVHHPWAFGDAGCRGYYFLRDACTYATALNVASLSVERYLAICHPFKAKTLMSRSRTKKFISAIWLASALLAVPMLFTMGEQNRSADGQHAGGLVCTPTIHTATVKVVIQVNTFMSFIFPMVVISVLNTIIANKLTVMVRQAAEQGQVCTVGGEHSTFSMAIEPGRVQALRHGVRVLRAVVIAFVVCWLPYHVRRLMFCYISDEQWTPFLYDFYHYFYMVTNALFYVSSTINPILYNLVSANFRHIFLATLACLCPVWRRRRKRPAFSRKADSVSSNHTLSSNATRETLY
Excerpt: Specific binding data (obtained by subtracting unspecific binding from total binding) were normalized (100% = specifically bound radioligand in the absence of competitor) and plotted over log(concentration of competitor) followed by a four-parameter logistic fit (SigmaPlot 12.5, Systat Software, San José, CA, USA) (note: in the case of 40, the lower curve plateau of the sigmoidal fit was constrained to >0). […] The Ki values from individual experiments were transformed to pKi values, followed by the calculation of mean pKi values ± SD.

[3] = [3H]UR-MK300 c = 1 nM, HT-29 cells, 23 °C, read-out: Ki [nM] NTS1R (converted)
[4] = [3H]UR-MK300 c = 1 nM, HT-29 cells, 23 °C, read-out: pKi ± SD NTS1R (converted)

Structure (SMILES)	remaining at 1 h, 100 µM ([1]; plasma) [%]	remaining at 6 h, 100 µM ([1]; plasma) [%]	remaining at 24 h, 100 µM ([1]; plasma) [%]	remaining at 48 h, 100 µM ([1]; plasma) [%]	Ki [2, 3] [nM]	Ki [2, 4] [nM]	also measured
CC[C@H](C)[C@H](NC(=O)[C@H](Cc1ccc(O)cc1)NC(=O)[C@@H]1CCCN1C(=O)[C@H](CCCNC(=N)NC(=O)NCCCCN)NC(=O)[C@H](CCCNC(=N)N)NC)C(=O)N[C@@H](CC(C)C)C(=O)O [Compound 9]	99 ± 2	57 ± 2	3 ± 0.1	1.4 ± 0.3			
CN[C@@H](CCCNC(=N)NC(=O)NCCOCCOCCN)C(=O)N[C@@H](CCCNC(=N)N)C(=O)N1CCC[C@H]1C(=O)N[C@@H](Cc1ccc(O)cc1)C(=O)N[C@H](C(=O)N[C@@H](CC(C)C)C(=O)O)C(C)(C)C [Compound 12]	97 ± 3	97 ± 3	94 ± 3	91 ± 3	2.7	2.45	
CC[C@H](C)[C@H](NC(=O)[C@H](Cc1ccc(O)cc1)NC(=O)[C@@H]1CCCN1C(=O)[C@H](CCCNC(=N)NC(=O)NCCCCNC(=O)CN1CCN(CC(=O)O)CCN(CC(=O)O)CCN(CC(=O)O)CC1)NC(=O)[C@H](CCCNC(=N)N)NC)C(=O)N[C@@H](CC(C)C)C(=O)O [Compound 15]							% Intact Peptide in Plasma after 1 h [1]: 78 ± 1%; % Intact Peptide in Plasma after 6 h [1]: 8.3 ± 0.4%
CN[C@@H](CCCNC(=N)NC(=O)NCCOCCOCCNC(=O)CN1CCN(CC(=O)O)CCN(CC(=O)O)CCN(CC(=O)O)CC1)C(=O)N[C@@H](CCCNC(=N)N)C(=O)N1CCC[C@H]1C(=O)N[C@@H](Cc1ccc(O)cc1)C(=O)N[C@H](C(=O)N[C@@H](CC(C)C)C(=O)O)C(C)(C)C [Compound 18]		99 ± 1			36		% Intact Peptide in Plasma after 24 h [1]: 94 ± 1%; % Intact Peptide in Plasma after 48 h [1]: 86 ± 1%
CC[C@H](C)[C@H](NC(=O)[C@H](Cc1ccc(O)cc1)NC(=O)[C@@H]1CCCN1C(=O)[C@H](CCCNC(=N)NC(=O)NCCCCNC(=O)CN1CCN(CC(=O)O)CCN(CC(=O)O)CCN(CC(=O)O)CC1)NC(=O)[C@H](CCCNC(=N)N)NC)C(=O)N[C@@H](CC(C)C)C(=O)O [Compound 20]			15 ± 1	4.6 ± 0.1			% Intact Peptide in Plasma after 1 h [1]: >99%; % Intact Peptide in Plasma after 6 h [1]: 77 ± 2%
CN[C@@H](CCCNC(N)=NC(=O)NCCOCCOCCNC(=O)CN1CCN(CC(=O)O)CCN(CC(=O)O)CCN(CC(=O)O)CC1)C(=O)N[C@@H](CCCNC(=N)N)C(=O)N1CCC[C@H]1C(=O)N[C@@H](Cc1ccc(O)cc1)C(=O)N[C@H](C(=O)N[C@@H](CC(C)C)C(=O)O)C(C)(C)C [Compound 23]	> 99				7.5		pKi ± SD NTS1R ([2]; [3H]UR-MK300 c = 1 nM, HT-29 cells, 23 °C): 8.13 ± 0.11; % Intact Peptide in Plasma after 6 h [1]: 98 ± 6%; % Intact Peptide in Plasma after 24 h [1]: 46 ± 2%; % Intact Peptide in Plasma after 48 h [1]: 7.8 ± 0.6%
CN[C@@H](CCCNC(N)=NC(=O)NCCCCNC(=O)[C@H](N)Cc1ccc(-c2ccc(F)cc2)cc1)C(=O)N[C@@H](CCCNC(=N)N)C(=O)N1CCC[C@H]1C(=O)N[C@@H](Cc1ccc(O)cc1)C(=O)N[C@H](C(=O)N[C@@H](CC(C)C)C(=O)O)C(C)(C)C [Compound 25]					4.3	4.27	
CN[C@@H](CCCNC(N)=NC(=O)NCCOCCOCCNC(=O)[C@H](N)Cc1ccc(-c2ccc(F)cc2)cc1)C(=O)N[C@@H](CCCNC(=N)N)C(=O)N1CCC[C@H]1C(=O)N[C@@H](Cc1ccc(O)cc1)C(=O)N[C@H](C(=O)N[C@@H](CC(C)C)C(=O)O)C(C)(C)C [Compound 26]					3.1	3.02	
CN[C@@H](CCCNC(N)=NC(=O)NCCOCCOCCNC(=O)[C@@H](Cc1ccc(-c2ccc(F)cc2)cc1)NC(=O)CCCCCNC(=O)CN1CCN(CC(=O)O)CCN(CC(=O)O)CCN(CC(=O)O)CC1)C(=O)N[C@@H](CCCNC(=N)N)C(=O)N1CCC[C@H]1C(=O)N[C@@H](Cc1ccc(O)cc1)C(=O)N[C@H](C(=O)N[C@@H](CC(C)C)C(=O)O)C(C)(C)C [Compound 32]					12	10.7	
CN[C@@H](CCCNC(N)=NC(=O)NCCOCCOCCNC(=O)[C@@H](Cc1ccc(-c2ccc(F)cc2)cc1)NC(=O)CCCCCNC(=O)CN1CCN(CC(=O)O)CCN(CC(=O)O)CCN(CC(=O)O)CC1)C(=O)N[C@@H](CCCNC(=N)N)C(=O)N1CCC[C@H]1C(=O)N[C@@H](Cc1ccc(O)cc1)C(=O)N[C@H](C(=O)N[C@@H](CC(C)C)C(=O)O)C(C)(C)C [Compound 33]							increase in NTS1R affinity upon insertion of Ga3+ ([2]; versus the precursor with empty DOTA chelator (32 or 54)): 4.8 fold
CN[C@@H](CCCNC(N)=NC(=O)NCCCCNC(=O)[C@@H](Cc1ccc(-c2ccc(F)cc2)cc1)NC(=O)CN1CCN(CC(=O)O)CCN(CC(=O)O)CCN(CC(=O)O)CC1)C(=O)N[C@@H](CCCNC(=N)N)C(=O)N1CCC[C@H]1C(=O)N[C@@H](Cc1ccc(O)cc1)C(=O)N[C@H](C(=O)N[C@@H](CC(C)C)C(=O)O)C(C)(C)C [Compound 34]					10	10.2	
CN[C@@H](CCCNC(N)=NC(=O)NCCOCCOCCNC(=O)[C@@H](Cc1ccc(-c2ccc(F)cc2)cc1)NC(=O)CN1CCN(CC(=O)O)CCN(CC(=O)O)CCN(CC(=O)O)CC1)C(=O)N[C@@H](CCCNC(=N)N)C(=O)N1CCC[C@H]1C(=O)N[C@@H](Cc1ccc(O)cc1)C(=O)N[C@H](C(=O)N[C@@H](CC(C)C)C(=O)O)C(C)(C)C [Compound 35]					14	13.5	
CC[C@@H](C)[C@H](NC(=O)[C@H](Cc1ccc(O)cc1)NC(=O)[C@@H]1CCCN1C(=O)[C@H](CCCNC(=N)N)NC(=O)[C@H](CCCNC(=N)N)NC)C(=O)N[C@@H](CC(C)C)C(=O)O [Compound 38]	92 ± 1	87 ± 1	70 ± 1	52 ± 1	4.8	4.68	
CC[C@H](C)[C@H](NC(=O)[C@H](Cc1ccc(O)cc1)NC(=O)[C@@H]1CCCN1C(=O)[C@H](CCCNC(=N)N)NC(=O)[C@H](CCCNC(=N)N)NC)C(=O)N[C@@](C)(CC(C)C)C(=O)O [Compound 47]	89 ± 1	88 ± 1	81 ± 1	73 ± 1			
CC[C@H](C)[C@H](NC(=O)[C@@H](NC(=O)[C@@H]1CCCN1C(=O)[C@H](CCCNC(=N)N)NC(=O)[C@H](CCCNC(=N)N)NC)C(C)(C)c1ccc(O)cc1)C(=O)N[C@@H](CC(C)C)C(=O)O [Compound 48]	90 ± 4	97 ± 6	92 ± 1	92 ± 1			
CC[C@H](C)[C@H](NC(=O)[C@H](NC(=O)[C@@H]1CCCN1C(=O)[C@H](CCCNC(=N)N)NC(=O)[C@H](CCCNC(=N)N)NC)C(C)(C)c1ccc(O)cc1)C(=O)N[C@@H](CC(C)C)C(=O)O [Compound 49]	96 ± 2	96 ± 1	94 ± 5	95 ± 2			
CN[C@@H](CCCNC(=N)NC(=O)NCCCCNC(=O)CN1CCN(CC(=O)O)CCN(CC(=O)O)CCN(CC(=O)O)CC1)C(=O)N[C@@H](CCCNC(=N)N)C(=O)N1CCC[C@H]1C(=O)N[C@H](C(=O)N[C@H](C(=O)N[C@@H](CC(C)C)C(=O)O)C(C)(C)C)C(C)(C)c1ccc(O)cc1 [Compound 55]					85	79.4	
CC[C@H](C)[C@H](NC(=O)[C@@H](NC(=O)[C@@H]1CCCN1C(=O)[C@H](CCCNC(=N)N)NC(=O)[C@H](CCCNC(N)=NC(=O)NCCCCNC(=O)CN1CCN(CC(=O)O)CCN(CC(=O)O)CCN(CC(=O)O)CC1)NC)C(C)(C)c1ccc(O)cc1)C(=O)N[C@@H](CC(C)C)C(=O)O [Compound 56]	> 99	> 99	77 ± 1	< 1			half-life at 100 µM ([1]; plasma): > 24 h
